Species: Rattus norvegicus
Experiment: DrugMatrix - Regimen: Daily Repeat
Format: toxicity, organism-based, Sprague-Dawley
Design: regimen Daily Repeat, gender Male, age 6-8 weeks
Conditions: in vivo, po, route oral GAVAGE, vehicle .5 % CMC; for BASOPHIL / EOSINOPHIL / ERYTHROCYTE COUNT / HEMATOCRIT / HEMOGLOBIN / LEUKOCYTE COUNT / LYMPHOCYTE / MEAN CORPUSCULAR HEMOGLOBIN / MEAN CORPUSCULAR HEMOGLOBIN CONCENTRATION / MEAN CORPUSCULAR VOLUME / MONOCYTE / NEUTROPHIL / PLATELET COUNT: tissue Blood; for ALANINE AMINOTRANSFERASE / ALBUMIN / ALKALINE PHOSPHATASE / ASPARTATE AMINOTRANSFERASE / BLOOD UREA NITROGEN / CHLORIDE / CHOLESTEROL / CREATINE PHOSPHOKINASE / CREATININE / GLUCOSE / PHOSPHORUS / POTASSIUM / SODIUM / TOTAL BILIRUBIN / TOTAL PROTEIN: tissue Plasma
[1] = 0 mg/kg, 72 h, dose level Control, time 3 day
[2] = 0 mg/kg, 120 h, dose level Control, time 5 day
[3] = 50 mg/kg, 72 h, dose level Low, time 3 day
[4] = 50 mg/kg, 120 h, dose level Low, time 5 day
[5] = 1000 mg/kg, 72 h, dose level High, time 3 day
[6] = 1000 mg/kg, 120 h, dose level High, time 5 day

With `CC(C)NCC(O)COc1ccc(CC(N)=O)cc1` (stereo not drawn) [ATENOLOL] the BASOPHIL [1] was 0%, the EOSINOPHIL [1] was 0.33% and the “ERYTHROCYTE COUNT” value [1] was 6.2 x10E6/uL. The HEMATOCRIT [1] was 38.08%, the HEMOGLOBIN [1] was 14.92 G/DL and the “LEUKOCYTE COUNT” value [1] was 11.13 x10E3/uL. For the same molecule, the LYMPHOCYTE [1] was 76%, the “MEAN CORPUSCULAR HEMOGLOBIN” value [1] was 24.1 pg and the “MEAN CORPUSCULAR HEMOGLOBIN CONCENTRATION” value [1] was 39.17 G/DL. The “MEAN CORPUSCULAR VOLUME” value [1] was 61.48 fL, the MONOCYTE [1] was 3.83% and the NEUTROPHIL [1] was 19.83%. For the same molecule, the “PLATELET COUNT” value [1] was 1327.5 x10E3/uL, the “ALANINE AMINOTRANSFERASE” value [1] was 40.17 u/L and the ALBUMIN [1] was 4.07 G/DL. For the same molecule, the “ALKALINE PHOSPHATASE” value [1] was 372 u/L, the “ASPARTATE AMINOTRANSFERASE” value [1] was 67.17 u/L and the “BLOOD UREA NITROGEN” value [1] was 18.83 mg/dL. The CHLORIDE [1] was 105.17 MEQ/L, the CHOLESTEROL [1] was 78.17 mg/dL and the “CREATINE PHOSPHOKINASE” value [1] was 149.17 u/L. It also gave a CREATININE [1] of 0.57 mg/dL, a GLUCOSE [1] of 185.17 mg/dL and a PHOSPHORUS [1] of 11.43 mg/dL. For the same molecule, the POTASSIUM [1] was 6.78 MEQ/L, the SODIUM [1] was 152.83 MEQ/L and the “TOTAL BILIRUBIN” value [1] was 0.4 mg/dL. For the same molecule, the “TOTAL PROTEIN” value [1] was 6.87 G/DL, the BASOPHIL [2] was 0% and the EOSINOPHIL [2] was 0%. The “ERYTHROCYTE COUNT” value [2] was 6.05 x10E6/uL, the HEMATOCRIT [2] was 36.55% and the HEMOGLOBIN [2] was 14.7 G/DL. The “LEUKOCYTE COUNT” value [2] was 11.8 x10E3/uL, the LYMPHOCYTE [2] was 86.83% and the “MEAN CORPUSCULAR HEMOGLOBIN” value [2] was 24.37 pg. For the same molecule, the “MEAN CORPUSCULAR HEMOGLOBIN CONCENTRATION” value [2] was 40.32 G/DL, the “MEAN CORPUSCULAR VOLUME” value [2] was 60.47 fL and the MONOCYTE [2] was 0.83%. The NEUTROPHIL [2] was 12.33%, the “PLATELET COUNT” value [2] was 1177 x10E3/uL and the “ALANINE AMINOTRANSFERASE” value [2] was 41.83 u/L. The ALBUMIN [2] was 3.75 G/DL, the “ALKALINE PHOSPHATASE” value [2] was 377.5 u/L and the “ASPARTATE AMINOTRANSFERASE” value [2] was 60.83 u/L. The “BLOOD UREA NITROGEN” value [2] was 16 mg/dL, the CHLORIDE [2] was 105.67 MEQ/L and the CHOLESTEROL [2] was 67.83 mg/dL. The “CREATINE PHOSPHOKINASE” value [2] was 120.33 u/L, the CREATININE [2] was 0.6 mg/dL and the GLUCOSE [2] was 167.67 mg/dL. For the same molecule, the PHOSPHORUS [2] was 10.03 mg/dL, the POTASSIUM [2] was 6.68 MEQ/L and the SODIUM [2] was 150.5 MEQ/L. The “TOTAL BILIRUBIN” value [2] was 0.57 mg/dL, the “TOTAL PROTEIN” value [2] was 6.25 G/DL and the BASOPHIL [3] was 0%. For the same molecule, the EOSINOPHIL [3] was 0%, the “ERYTHROCYTE COUNT” value [3] was 5.54 x10E6/uL and the HEMATOCRIT [3] was 35.3%. For the same molecule, the HEMOGLOBIN [3] was 13.9 G/DL, the “LEUKOCYTE COUNT” value [3] was 9.75 x10E3/uL and the LYMPHOCYTE [3] was 86%. For the same molecule, the “MEAN CORPUSCULAR HEMOGLOBIN” value [3] was 25.1 pg, the “MEAN CORPUSCULAR HEMOGLOBIN CONCENTRATION” value [3] was 39.35 G/DL and the “MEAN CORPUSCULAR VOLUME” value [3] was 63.75 fL. The MONOCYTE [3] was 1%, the NEUTROPHIL [3] was 13% and the “PLATELET COUNT” value [3] was 1258 x10E3/uL. For the same molecule, the “ALANINE AMINOTRANSFERASE” value [3] was 34.5 u/L, the ALBUMIN [3] was 3.75 G/DL and the “ALKALINE PHOSPHATASE” value [3] was 332 u/L. The “ASPARTATE AMINOTRANSFERASE” value [3] was 57 u/L, the “BLOOD UREA NITROGEN” value [3] was 18 mg/dL and the CHLORIDE [3] was 106 MEQ/L. The CHOLESTEROL [3] was 83 mg/dL, the “CREATINE PHOSPHOKINASE” value [3] was 110 u/L and the CREATININE [3] was 0.55 mg/dL. For the same molecule, the GLUCOSE [3] was 164.5 mg/dL, the PHOSPHORUS [3] was 11.45 mg/dL and the POTASSIUM [3] was 6.45 MEQ/L. For the same molecule, the SODIUM [3] was 152 MEQ/L, the “TOTAL BILIRUBIN” value [3] was 0.3 mg/dL and the “TOTAL PROTEIN” value [3] was 6.2 G/DL. For the same molecule, the BASOPHIL [4] was 0%, the EOSINOPHIL [4] was 0% and the “ERYTHROCYTE COUNT” value [4] was 5.99 x10E6/uL. For the same molecule, the HEMATOCRIT [4] was 36.17%, the HEMOGLOBIN [4] was 14.4 G/DL and the “LEUKOCYTE COUNT” value [4] was 11.97 x10E3/uL. For the same molecule, the LYMPHOCYTE [4] was 88%, the “MEAN CORPUSCULAR HEMOGLOBIN” value [4] was 24.03 pg and the “MEAN CORPUSCULAR HEMOGLOBIN CONCENTRATION” value [4] was 39.8 G/DL. For the same molecule, the “MEAN CORPUSCULAR VOLUME” value [4] was 60.4 fL, the MONOCYTE [4] was 1.67% and the NEUTROPHIL [4] was 10.33%. The “PLATELET COUNT” value [4] was 1118 x10E3/uL, the “ALANINE AMINOTRANSFERASE” value [4] was 39.67 u/L and the ALBUMIN [4] was 3.6 G/DL. The “ALKALINE PHOSPHATASE” value [4] was 354.33 u/L, the “ASPARTATE AMINOTRANSFERASE” value [4] was 60.33 u/L and the “BLOOD UREA NITROGEN” value [4] was 14 mg/dL. For the same molecule, the CHLORIDE [4] was 104.67 MEQ/L, the CHOLESTEROL [4] was 72 mg/dL and the “CREATINE PHOSPHOKINASE” value [4] was 115 u/L. For the same molecule, the CREATININE [4] was 0.53 mg/dL, the GLUCOSE [4] was 172.33 mg/dL and the PHOSPHORUS [4] was 10.87 mg/dL. The POTASSIUM [4] was 6.93 MEQ/L, the SODIUM [4] was 150.33 MEQ/L and the “TOTAL BILIRUBIN” value [4] was 0.3 mg/dL. The “TOTAL PROTEIN” value [4] was 5.93 G/DL, the BASOPHIL [5] was 0% and the EOSINOPHIL [5] was 0.67%. The “ERYTHROCYTE COUNT” value [5] was 5.98 x10E6/uL, the HEMATOCRIT [5] was 36.83% and the HEMOGLOBIN [5] was 14.37 G/DL. The “LEUKOCYTE COUNT” value [5] was 10.2 x10E3/uL, the LYMPHOCYTE [5] was 87.33% and the “MEAN CORPUSCULAR HEMOGLOBIN” value [5] was 24.07 pg. For the same molecule, the “MEAN CORPUSCULAR HEMOGLOBIN CONCENTRATION” value [5] was 39.03 G/DL, the “MEAN CORPUSCULAR VOLUME” value [5] was 61.67 fL and the MONOCYTE [5] was 0.67%. For the same molecule, the NEUTROPHIL [5] was 11.33%, the “PLATELET COUNT” value [5] was 1408.33 x10E3/uL and the “ALANINE AMINOTRANSFERASE” value [5] was 45.67 u/L. The ALBUMIN [5] was 3.63 G/DL, the “ALKALINE PHOSPHATASE” value [5] was 339 u/L and the “ASPARTATE AMINOTRANSFERASE” value [5] was 60.67 u/L. The “BLOOD UREA NITROGEN” value [5] was 14 mg/dL, the CHLORIDE [5] was 107 MEQ/L and the CHOLESTEROL [5] was 70 mg/dL. For the same molecule, the “CREATINE PHOSPHOKINASE” value [5] was 137.33 u/L, the CREATININE [5] was 0.5 mg/dL and the GLUCOSE [5] was 170.33 mg/dL. For the same molecule, the PHOSPHORUS [5] was 10.57 mg/dL, the POTASSIUM [5] was 6.17 MEQ/L and the SODIUM [5] was 151.33 MEQ/L. For the same molecule, the “TOTAL BILIRUBIN” value [5] was 0.3 mg/dL, the “TOTAL PROTEIN” value [5] was 6 G/DL and the BASOPHIL [6] was 0%. The EOSINOPHIL [6] was 0%, the “ERYTHROCYTE COUNT” value [6] was 7.06 x10E6/uL and the HEMATOCRIT [6] was 43.27%. The HEMOGLOBIN [6] was 16.87 G/DL, the “LEUKOCYTE COUNT” value [6] was 15.07 x10E3/uL and the LYMPHOCYTE [6] was 82%. For the same molecule, the “MEAN CORPUSCULAR HEMOGLOBIN” value [6] was 24 pg, the “MEAN CORPUSCULAR HEMOGLOBIN CONCENTRATION” value [6] was 39.07 G/DL and the “MEAN CORPUSCULAR VOLUME” value [6] was 61.43 fL. The MONOCYTE [6] was 2.67%, the NEUTROPHIL [6] was 15.33% and the “PLATELET COUNT” value [6] was 1202 x10E3/uL. For the same molecule, the “ALANINE AMINOTRANSFERASE” value [6] was 39.67 u/L, the ALBUMIN [6] was 3.77 G/DL and the “ALKALINE PHOSPHATASE” value [6] was 265.33 u/L. The “ASPARTATE AMINOTRANSFERASE” value [6] was 77 u/L, the “BLOOD UREA NITROGEN” value [6] was 20 mg/dL and the CHLORIDE [6] was 111.33 MEQ/L. For the same molecule, the CHOLESTEROL [6] was 76.33 mg/dL, the “CREATINE PHOSPHOKINASE” value [6] was 139.33 u/L and the CREATININE [6] was 0.6 mg/dL. For the same molecule, the GLUCOSE [6] was 166 mg/dL, the PHOSPHORUS [6] was 11.47 mg/dL and the POTASSIUM [6] was 7 MEQ/L. The SODIUM [6] was 158.33 MEQ/L, the “TOTAL BILIRUBIN” value [6] was 0.27 mg/dL and the “TOTAL PROTEIN” value [6] was 6.3 G/DL.

From ChEMBL document CHEMBL3885881, “DrugMatrix”
